From patent publication US10167261B2, “2-oxo-3,4-dihydroquinolin-6-yl sulphonamide CPDS and their use as plant growth regulators” (THE REGENTS OF THE UNIVERSITY OF CALIFORNIA, priority 2014, dated 2019)
Read-outs that look alike come from different tables or passages of the source.

Assays:
PYL2-HAB1 = PYL2-HAB1 (Arabidopsis thaliana (Mouse-ear cress), UniProt O80992); assay: PP2C activity assay, PYL2-HAB1; type: biochemical; conditions: 100 nM PP2C, 200 nM PYR/PYL protein, 4-nitrophenyl phosphate substrate; read-out: IC50 of inhibition of PYL2-HAB1
Excerpt: (§1) The protein HAB1, a type 2 protein phosphatase (PP2C), is inhibited by PYR/PYL proteins in dependence of abscisic acid or other receptor agonists. The potency of a receptor agonists correlates with the level of inhibition of the PP2C, and therefore the IC50 (PYR1-HAB1) can be used to compare the relative activity of different chemical analogues. Since inhibition of PP2C correlates to inhibition of seed-germination and increase in plant water-use efficiency, it serves as a powerful tool to quantify biological potential of a chemical acting as an analogue of abscisic acid.
(§2) HAB1 and PYL proteins were expressed and purified as described in Park et al. ((2009) Science 324(5930):1068-1071), with minor modifications. To obtain GST-HAB1, the HAB1 cDNA was cloned into pGex-2T. Expression was conducted in BL21[DE3]pLysS host cells. Transformed cells were pre-cultured overnight, transferred to LB medium and cultured at 30° C. to culture A600 of ˜0.5.
(§3) The culture was then cooled on ice and MnCl2 added to 4 mM and IPTG added to 0.3 mM. After 16 hours incubation at 15° C., cells were harvested and recombinant proteins were purified on glutathione agarose as described in Park et al. To obtain 6×His-PYL receptor fusion proteins, expression constructs previously described by Okamoto et al. 2013, (PNAS 110(29): 12132-12137) were used. ABA receptors were expressed and purified as described above.
(§4) For the values shown in Table B5, PP2C activity assays using recombinant receptors and PP2Cs were carried out as follows: purified proteins were pre-incubated in 160 μl assay buffer containing 100 mM Tris-HCl-pH7.9, 100 mM NaCl, 3 μg bovine serum albumin, 0.1% 2-mercaptoethanol, 1 mM MnCl2 with ABA or agonists (compounds of the present invention) for 30 minutes at room temperature. Reactions were started by adding 40 μL of a reaction solution containing 25 mM 4-nitrophenyl phosphate in assay buffer after which absorbance measurements were immediately collected using a 405 nm on Wallac plate reader. Reactions contained 100 nM PP2C and 200 nM PYR/PYL proteins. […] For inferring IC50 values, calculations from receptor/PP2C assays containing different concentrations (ranging from 1 μM to 4 nM) were. The obtained dose response data was fit to a log (inhibitor) versus response-(variable slope) model using non-linear regression to infer the IC50s, using Graph Pad Prism 6.0.

[1] = test system: corn plants (variety NK OCTET); assay: Water use (WU) of corn plants after foliar spray; type: in vivo; conditions: foliar spray at 500 μM, vs negative control
PYR1-HAB1 = PYR1-HAB1 (Arabidopsis thaliana (Mouse-ear cress), UniProt O49686); assay: PP2C activity assay, PYR1-HAB1; type: biochemical; conditions: 100 nM PP2C, 200 nM PYR/PYL protein, 4-nitrophenyl phosphate substrate; read-out: IC50 of inhibition of PYR1-HAB1
Excerpt: as §1, §2, §3, §4

[2] = test system: corn plants (variety NK OCTET); assay: Water use (WU) of corn plants after foliar spray; type: in vivo; conditions: foliar spray at 500 μM, vs negative control; for Total % WU 0 to 2 DAA: cumulative
Procedure: Compounds were tested for their effect on reducing plant water use as follows. The compounds were applied by foliar spray to 12 day old corn plants (variety NK OCTET) grown in controlled environment plant growth chambers. All compounds were applied using an emulsifiable concentrate (EC) formulation that was diluted to the desired concentrations with water containing 0.4% of the adjuvant rape seed methyl ester. Plant water use during the day was assessed by repeated weighing of the pots in which the plants were grown before and after application of the compounds at the indicated times (expressed in days after application (DAA)). The water use data before application was used to correct any differences in water use arising due to non-treatment effects (e.g. due to differences in plant size). The untransformed water use values were subjected to an analysis of covariance, fitting the effect of treatment and using the baseline water use 1 day before application as a covariate. Application of the chemicals (0 DAA) takes place approximately between 8 to 9:30 a.m. WU is measured within day time (chamber light is on 6:00 to 20:00) at these timepoints: 0 DAA AM (10:30-12:50) and 0 DAA PM (14:00-19:50), 1 DAA AM (7:30-12:50) and 1 DAA PM (14:00-19:50) and 2 DAA AM (7:30-12:50). The cumulative total WU (0-2 DAA) is calculated by summing the WU data mentioned above.

[3] = test system: soybean plants (variety S20-G7); assay: Water use (WU) of soybean plants after foliar spray; type: in vivo; conditions: for Total % WU 0 to 2 DAA: cumulative; for change in vivo at 100 µM / change in vivo at 500 µM: Glycine max, vs negative control; for change in vivo at 100 µM / Total 0 to 2 DAA / change in vivo at 500 µM: foliar spray; for Total 0 to 2 DAA: cumulative WU vs negative control
Procedure: Chemicals were tested for their effect on reducing plant water use (WU) after being applied by foliar sprays onto soybean plants (variety S20-G7)—grown in controlled environment plant growth chambers. All chemicals were applied using an emulsifiable concentrate (EC) formulation that was diluted with water containing additional surfactant (EXTRAVON 1 g/20 L) to the indicated concentrations. Plant WU was assessed by multiple pot weighing processes before and after application of the chemicals at the indicated times (expressed in days after application (DAA)). The WU data before application was used to correct for differences in water use due to non-treatment effects (e.g. due to differences in plant size). The results are expressed compared to negative control treatment (water with EXTRAVON 1 g/20 L).
Application of the chemicals (0 DAA) takes place approximately between 8 to 9:30 a.m. […] The cumulative total WU (0-2 DAA) is calculated by summing the WU data mentioned above.

[4] = repeated experiment (Table B2), rate not given
[5] = 0 h, application rate 100 μM, read-out: % WU 0 DAA AM
[6] = 0 h, application rate 100 μM, read-out: % WU 0 DAA PM
[7] = 24 h, application rate 100 μM, read-out: % WU 1 DAA AM
[8] = 24 h, application rate 100 μM, read-out: % WU 1 DAA PM
[9] = 48 h, application rate 100 μM, read-out: % WU 2 DAA AM

Sequence of PYR1-HAB1 (O49686 whole entry, looked up): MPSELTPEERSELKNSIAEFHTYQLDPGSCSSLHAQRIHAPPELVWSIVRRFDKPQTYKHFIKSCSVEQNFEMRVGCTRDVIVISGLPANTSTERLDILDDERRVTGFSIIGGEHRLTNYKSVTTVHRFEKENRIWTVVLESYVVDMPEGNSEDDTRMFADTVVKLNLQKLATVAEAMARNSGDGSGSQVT
Sequence of PYR1-HAB1 (Q9CAJ0 whole entry partner, looked up): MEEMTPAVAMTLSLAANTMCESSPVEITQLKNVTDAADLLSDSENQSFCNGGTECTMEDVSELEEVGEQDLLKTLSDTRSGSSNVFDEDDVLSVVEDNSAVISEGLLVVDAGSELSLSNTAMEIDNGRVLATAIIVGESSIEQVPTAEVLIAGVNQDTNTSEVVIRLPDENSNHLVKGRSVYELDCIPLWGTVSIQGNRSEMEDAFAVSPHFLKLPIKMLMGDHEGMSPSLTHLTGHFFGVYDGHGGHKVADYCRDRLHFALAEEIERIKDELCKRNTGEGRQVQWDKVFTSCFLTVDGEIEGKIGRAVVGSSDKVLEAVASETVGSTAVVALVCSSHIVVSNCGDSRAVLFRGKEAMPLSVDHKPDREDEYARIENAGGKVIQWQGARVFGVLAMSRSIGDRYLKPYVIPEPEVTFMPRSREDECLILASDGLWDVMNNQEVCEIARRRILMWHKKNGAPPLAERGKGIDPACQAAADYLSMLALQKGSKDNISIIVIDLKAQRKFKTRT
Sequence of PYL2-HAB1 (O80992 whole entry, looked up): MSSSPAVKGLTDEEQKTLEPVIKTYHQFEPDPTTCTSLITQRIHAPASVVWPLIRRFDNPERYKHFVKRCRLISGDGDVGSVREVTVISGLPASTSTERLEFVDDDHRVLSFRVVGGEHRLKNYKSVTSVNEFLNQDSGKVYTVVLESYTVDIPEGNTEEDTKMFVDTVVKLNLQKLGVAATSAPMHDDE
Sequence of PYL2-HAB1 (Q9CAJ0 whole entry partner, looked up): as the sequence (Q9CAJ0 whole entry partner, looked up) above

Structure (SMILES)	IC50 (PYL2-HAB1)	% WU 2 DAA PM [1]	IC50 (PYR1-HAB1)	Total % WU 0 to 2 DAA [2]	% WU 0 DAA AM [2]	% WU 0 DAA PM [2]	% WU 1 DAA AM [2]	% WU 1 DAA PM [2]	% WU 2 DAA AM [2]	% WU 2 DAA PM [3, 4]	Total % WU 0 to 2 DAA [3, 4]	further results
CCCN1C(=O)CCc2cc(NS(=O)(=O)Cc3ccc(C4CC4)cc3)ccc21 [Compound 1.004, 1-(4-cyclopropylphenyl)-N-(2-oxo-1-propyl-3,4-dihydroquinolin-6-yl)methanesulfonamide]	177 nM	−10.2%	51 nM	−11.8%	−17.9%	−12.4%	−12.4%	−12.1%	−9.8%	−12.9%	−25%	
CCCN1C(=O)CCc2cc(NS(=O)(=O)Cc3ccc(C4CC4)cc3)cc(Cl)c21 [Compound 1.025, N-(8-chloro-2-oxo-1-propyl-3,4-dihydroquinolin-6-yl)-1-(4-cyclopropylphenyl)methanesulfonamide]	114 nM		83 nM							−13.6%	−22.1%	
CCN1C(=O)CC(C)c2cc(NS(=O)(=O)Cc3ccc(C4CC4)cc3)ccc21 (stereo not drawn) [Compound 1.178, 1-(4-cyclopropylphenyl)-N-(1-ethyl-4-methyl-2-oxo-3,4-dihydroquinolin-6-yl)methanesulfonamide]		−5.8%		−9.7%	−18.5%	−13%	−11.2%	−9.2%	−6.5%	−36.5%	−45.4%	
CCCN1C(=O)CC(C)c2cc(NS(=O)(=O)Cc3ccc(C4CC4)cc3)ccc21 (stereo not drawn) [Compound 1.179]	64 nM		82 nM									
CCN1C(=O)CCc2cc(NS(=O)(=O)Cc3ccc(C4CC4)cc3)cc(F)c21 [Compound 1.213, 1-(4-cyclopropylphenyl)-N-(1-ethyl-8-fluoro-2-oxo-3,4-dihydroquinolin-6-yl)methanesulfonamide]	244 nM	−7%	21 nM	−11.4%	−18.2%	−15.5%	−13.4%	−11.2%	−7.9%	−38.7%	−45.8%	
CCCN1C(=O)CCc2cc(NS(=O)(=O)Cc3ccc(C4CC4)cc3)cc(F)c21 [Compound 1.214, 1-(4-cyclopropylphenyl)-N-(8-fluoro-2-oxo-1-propyl-3,4-dihydroquinolin-6-yl)methanesulfonamide]	130 nM		28 nM									
CCCN1C(=O)CCc2cc(NS(=O)(=O)Cc3ccc(C4CCC4)cc3)ccc21 [Compound 5.004, 1-(4-cyclobutylphenyl)-N-(2-oxo-1-propyl-3,4-dihydroquinolin-6-yl)methanesulfonamide]		−2.3%		−4.9%	−8.9%	−8.8%	−5.6%	−5.9%	−1.7%	3.9%	−3%	
CCCN1C(=O)CCc2cc(NS(=O)(=O)Cc3ccc(C4CC(=O)C4(C)C)cc3)ccc21 (stereo not drawn) [Compound 8.004, 1-[4-(2,2-dimethyl-3-oxo-cyclobutyl)phenyl]-N-(2-oxo-1-propyl-3,4-dihydroquinolin-6-yl)methanesulfonamide]										1%	−0.7%	
CCCN1C(=O)CCc2cc(NS(=O)(=O)Cc3ccc(C4CCCC4)cc3)ccc21 [Compound 9.004, 1-(4-cyclopentylphenyl)-N-(2-oxo-1-propyl-3,4-dihydroquinolin-6-yl)methanesulfonamide]	> 1000 nM		97 nM							0.5%	−1.4%	
CCCN1C(=O)CCc2cc(NS(=O)(=O)Cc3ccc(C)cc3)ccc21 [Quinabactin, quinabactin, reference compound]	262 nM		104 nM							−11%	−16%	% WU 0 DAA AM [3, 4]: −22%; % WU 0 DAA PM [3, 4]: −23%; % WU 1 DAA AM [3, 4]: −17%; % WU 1 DAA PM [3, 4]: −15%; % WU 2 DAA AM [3, 4]: −12%
CCCN1C(=O)CCc2cc(NS(=O)(=O)Cc3ccc(C)cc3)ccc21 [drawing 25, reference compound]												change in vivo at 100 µM [3, 5]: -1.3%; change in vivo at 100 µM [3, 6]: -0.7%; change in vivo at 100 µM [3, 7]: -2.2%; change in vivo at 100 µM [3, 8]: -0.2%; change in vivo at 100 µM [3, 9]: -3.4%; Total 0 to 2 DAA ([3]; application rate 100 μM): −2.0%
CCCN1C(=O)CCc2cc(NS(=O)(=O)Cc3ccc(C4CC4)cc3)ccc21 [drawing 26]												change in vivo at 100 µM [3, 5]: -0.8%; change in vivo at 100 µM [3, 6]: -3.8%; change in vivo at 100 µM [3, 7]: -3%; change in vivo at 100 µM [3, 8]: -2.8%; change in vivo at 100 µM [3, 9]: -5.2%; Total 0 to 2 DAA ([3]; application rate 100 μM): −3.8%
CCCN1C(=O)CCc2cc(NS(=O)(=O)Cc3ccc(C4CC4)cc3)ccc21 [drawing 27]												change in vivo at 500 µM ([3]; 0 h, application rate 500 μM, read-out: % WU 0 DAA AM): -8.8%; change in vivo at 500 µM ([3]; 0 h, application rate 500 μM, read-out: % WU 0 DAA PM): -10.7%; change in vivo at 500 µM ([3]; 24 h, application rate 500 μM, read-out: % WU 1 DAA AM): -9.4%; change in vivo at 500 µM ([3]; 24 h, application rate 500 μM, read-out: % WU 1 DAA PM): -6.4%; change in vivo at 500 µM ([3]; 48 h, application rate 500 μM, read-out: % WU 2 DAA AM): -6.1%; Total 0 to 2 DAA ([3]; application rate 500 μM): −8.9%
